Experimental data from patent US20140220112A1, “TRANSFORMATION OF DRUG CYCLODEXTRIN COMPLEX COMPOSITIONS INTO COMPOSITIONS OF MIXTURES OF LIPID VESICLE ENCAPSULATED DRUG AND CYCLODEXTRIN DRUG COMPLEXES” (Zoneone Pharma, Inc., priority 2013, published 2014).
Where “and” joins values, the source holds several entries; their conditions need not be identical. Identical values can stand only once. One block for each compound: values may come before it.

Assays:
[1] = Encapsulation of aripiprazole from Abilify (SBECD solution) into LUV, liquid/liquid protocol; assay type: physicochemical; conditions: LUV HSPC/Cholesterol/PEG-DSPE
Experimental: (§1) A portion of the lyophilized cake of GEODON® (Pfizer) was weighed out and dissolved in deionized water. The amount of the active ingredient (ziprasidone) was calculated by multiplying the cake weight by 0.0625 and added to liposomes from a 1 mg/mL solution. In certain experiments the lyophilized cake was reconstituted with the aqueous liposome preparation at defined lipid to drug ratios (liquid/liquid system). In other cases the lyophilized cake was directly rehydrated with the liposome suspension (liquid/solid system). The LUV were diluted with 5 mM Hepes, 10% sucrose pH 6.5. The liposome/drug solution was transferred to a 65° C. bath and swirled every 30 s for the first 3 min and then swirled every 5 min over a total heating time of 30 min. After heating for 30 min all samples were placed on ice for 15 min. the loaded liposomes were vortexed and 100 μL of sample was kept as the “before column” and the rest purified by ion exchange chromatography and gel filtration chromatography. Amberlite IRA-67 anion exchange resin was prepared by washing with 1N NaOH, followed by 3 washes with ddH2O and 3 washes with 3N HCl. The resin was exhaustively washed with dH2O until the pH of the supernatant was neutral. The SBCD was removed by adding 70 mg of resin to the eppendorf containing the liposomes and mixed well. The LUV solution was then purified by gel filtration chromatography (Sephadex G25) to remove residual extraliposomal drug. The turbid liposome fraction was collected and analyzed by HPLC.
ABILIFY® Injection is available in single-dose vials as a ready-to-use, 9.75 mg/1.3 mL (7.5 mg/mL) clear, colorless, sterile, aqueous solution for intramuscular use only. […] The active ingredient in Abilify® (Bristol-Myers), aripiprazole (7.5 mg/mL) was introduced to the LUV (HSPC/Cholesterol/PEG-DSPE: 3/2/0.15 mole ratio) at a drug to total lipid ratio of 50 g drug/mol HSPC (drug to total lipid ratio (wt/wt) of 0.12) or 100 g/mol (0.24 wt/wt) or 200 g/mol (0.48 wt/wt). […]

[2] = Incorporation of maropitant from Cerenia (SBCD) into lyophilized MLV with encapsulated triethylamine sulfate; assay type: physicochemical; conditions: MLV POPC/Chol/DSPG, 60° C. 30 minutes
Experimental: Maropitant citrate is used for the prevention of acute vomiting in dogs and cats. The MLV formulation described in example 4 is prepared with 250 mM triethylamine sulfate in place of ammonium sulfate. The formulation is lyophilized to provide a cake consisting of 120 mg sucrose and a 1.2 μmoles total lipid of a liposome with a lipid composition of POPC/Chol/DSPG mole ratio 3/2/0.15 with a higher concentration of triethylamine sulfate on the inside than on the outside. The contents of the 20 mL Cerenia® Injectable Solution vial which contains 10 mg maropitant, 63 mg sulphobutylether-beta-cyclodextrin, 3.3 mg meta-cresol per mL is slowly added to the vial of lyophilized liposomes and the vial is slowly rotated to rehydrate the MLV at room temperature. The milky white mixture is allowed to stand at 60° C. for 30 minutes. The percent of the maropitant that is incorporated into the liposome is about 60% of the total maropitant in the vial. […] Approximately 40% of the drug remains associated with the SBCD. This formulation is suitable for subcutaneous injection to prevent vomiting associated with chemotherapy.

[3] = Loading of carfilzomib from the lyophilized Kyprolis vial into the core of added LUV; assay type: physicochemical
Experimental: A 30 mL preparation of LUVs composed of HSPC/Cholesterol/PEG2000-DSPE at lipid concentration of 15 mM lipid (circa 300 mg lipid) is prepared by the extrusion process through 100 nm polycarbonate membranes in a 250 mM ammonium sulfate solution to yield a 100 nm diameter LUV suspension of encapsulated ammonium sulfate. The LUV are dialyzed against 500 volumes of 0.15 M NaCl to remove non-encapsulated ammonium sulfate. The liposome suspension is then passed through a 0.2 micron sterile membrane into a sterile tube. The liposome solution (29 mL) is added aseptically to the vial containing 60 mg of carfilzomib at room temperature. The vial is gently mixed not shaken, for about 1 minute, or until the cake or powder is completely solubilized. The rehydrated solid is incubated for 40 minutes at 37° C. The carfilzomib is substantially loaded (>60%) into the core of the liposome at the end of the incubation period. The 100 nm diameter of the liposomes is not altered by this rehydration incubation process. The temperature of the vial is then reduced to 4° C. until the mixture of CD, drug-loaded liposome are injected into the subject.
The pharmacokinetic behavior of preparation of carfilzomib can be easily modulated by adjusting the amount of LUV containing ammonium sulfate or triethylamine sulfate that are added to the vial of Kyprolis®. […]

[4] = cited from earlier work
[5] = Encapsulation of ziprasidone from Geodon (SBCD complex) into ammonium sulfate LUV liposomes, HPLC after purification; assay type: physicochemical; conditions: 65° C. 30 min; for % ziprasidone entrapped in liposome from suspension of ziprasidone: liquid/liquid system; for % ziprasidone entrapped in liposome from reconstitution of Geodon cake: liquid/solid system
Experimental: Alternatively, lipids were dissolved in ethanol at a concentration of 500 mM HSPC/Cholesterol/PEG-DSPE: 3/2/0.15 (591 mg/mL total lipid) at 65° C. and the 9 volumes of the trapping agent solution heated to 65° C. was added to the ethanol/lipid solution also at 65° C. and the mixture was vortexed and transferred to a 10 mL thermostatically controlled (65° C.) Lipex Extruder. The LUV were formed by extruding 10 times through polycarbonate membranes having 0.1 um pores. After extrusion the liposomes were cooled on ice. The transmembrane electrochemical gradient was formed by purification of the liposomes by dialysis in dialysis tubing having a molecular weight cut off of 12,000-14,000. The samples are dialyzed against 5 mM HEPES, 10% sucrose pH 6.5 (stirring at 4° C.) at volume that is 100 fold greater than the sample volume. The dialysate was changed after 2 h then 4 more times after 12 h each. The conductivity of the liposome solution was measured and was indistinguishable from the dialysis medium […].
The HPLC analysis of all other drugs used (such as ziprasidone, ariprazole, voriconazole etc) was performed on the same system as described for analysis of cholesterol. The mobile phase consists of −A=0.1% TFA, B=0.1% TFA/MeOH with a gradient elution starting at 40% B and increasing to 70% B in 7 min with 6 min equilibration back to 40% B. The flow rate is 1.0 mL/min, column temperature is 30 C, 10 μL injection and detection by absorbance at 254 nm. The retention times were as follows: ziprasidone 5.73 min, ariprazole 8.12 min, voriconazole 8.81 min.
as §1

[6] = Loading of hydroxypropyl cyclodextrin solubilized SN-38 into LUV containing acetate-PEI salt; assay type: physicochemical; conditions: LUV 20 mM total lipid, 12 hours at room temperature
Experimental: Lipids are dissolved in ethanol at a concentration of 500 mM POPC/Cholesterol/PEG-DSPE: 3/2/0.15 (591 mg/mL total lipid) at 65° C. and the 9 volumes of the trapping agent solution, polyethyleneimine (PEI) MW 1300 titrated to pH 7.4 with glacial acetic acid to form the acetate polyethyleneimine salt, is heated to 65° C. then added to the ethanol/lipid solution also at 65° C. This mixture is vortexed and transferred to a 10 mL thermostatically controlled (65° C.) Lipex Extruder. The LUV are formed by extruding 10 times through polycarbonate membranes having 0.1 um pores. After extrusion, the LUV are cooled on ice. A transmembrane electrochemical gradient is formed by placing the liposomes in dialysis tubing having a molecular weight cut off of 12,000-14,000. The samples are dialyzed against 5 mM HEPES, 10% sucrose pH 6.5 (stirring at 4° C.) at volume that is 100-fold greater than the liposome sample volume. The dialysate is changed after 2 h then 4 more times after 12 h each. The conductivity of the liposome solution was measured and was indistinguishable from the dialysis medium ˜40 μS/cm.
The LUV (20 mM total lipid containing a greater concentration of acetate-PEI salt on the inside than on the outside) are mixed with the hydroxypropyl cyclodextrin solubilized SN-38 (24 mg/mL hydroxylpropylcyclodextrin and 2 mg/mL SN-38) and allowed to incubate for 12 hours at room temperature. […]

[7] = input drug-to-lipid 100 ug/umol
[8] = input drug-to-lipid 200 ug/umol

% aripiprazole entrapped in liposome when transferred from Abilify ([1]; input drug-to-lipid 50 ug/umol): 60.16 ± 3.57%
% aripiprazole entrapped in liposome when transferred from Abilify [1, 7]: 48.4% and 48.36 ± 3.78%
% aripiprazole entrapped in liposome when transferred from Abilify [1, 8]: 43.2% and 43.22 ± 2.09%
SMILES: O=C1CCc2ccc(OCCCCN3CCN(c4cccc(Cl)c4Cl)CC3)cc2N1 [aripiprazole]

SMILES: COc1ccc(C(C)(C)C)cc1CN[C@H]1C2CCN(CC2)[C@H]1C(c1ccccc1)c1ccccc1 [maropitant]
percent of the drug remaining associated with the SBCD [2]: Approximately 40%
percent of the maropitant incorporated into the liposome, of total maropitant in the vial [2]: about 60%
resulting drug to lipid ratio [2]: about 140 grams/mole lipid

carfilzomib loaded into the core of the liposome ([3]; Kyprolis vial 60 mg + 29 mL LUV (circa 300 mg lipid), ammonium sulfate, 40 minutes at 37° C.): > 60%
amount of carfilzomib that remains complexed to the CD, fraction of total amount in the vial ([3]; liposomes added decreased from 300 mg to 200 mg of total lipid): about one-half
SMILES: CC(C)C[C@H](NC(=O)[C@H](CCc1ccccc1)NC(=O)CN1CCOCC1)C(=O)N[C@@H](Cc1ccccc1)C(=O)N[C@@H](CC(C)C)C(=O)[C@@]1(C)CO1 [carfilzomib]
solubility in water [4]: less than 10 micrograms/mL

% ziprasidone entrapped in liposome from suspension of ziprasidone ([5]; input drug-to-lipid 50 ug/umol): 87.92 ± 2.35%
% ziprasidone entrapped in liposome from reconstitution of Geodon cake ([5]; input drug-to-lipid 50 ug/umol): 90.42 ± 2.91%
% ziprasidone entrapped in liposome from reconstitution of Geodon cake ([5]; input drug-to-lipid 50 ug/umol, listed as Geodon): 90.4%
% ziprasidone entrapped in liposome from suspension of ziprasidone [5, 7]: 84.24 ± 3.14%
% ziprasidone entrapped in liposome from reconstitution of Geodon cake [5, 7]: 75.50 ± 2.91%
% ziprasidone entrapped in liposome from reconstitution of Geodon cake ([5]; input drug-to-lipid 100 ug/umol, listed as Geodon): 75.5%
% ziprasidone entrapped in liposome from suspension of ziprasidone [5, 8]: 80.38 ± 3.61%
% ziprasidone entrapped in liposome from suspension of ziprasidone ([5]; input drug-to-lipid 200 ug/umol, listed as Geodon): 80.4%
% ziprasidone entrapped in liposome from reconstitution of Geodon cake [5, 8]: 62.68 ± 3.27%
% ziprasidone entrapped in liposome from reconstitution of Geodon cake ([5]; input drug-to-lipid 400 ug/umol): 67.40 ± 3.88%
% ziprasidone entrapped in liposome from reconstitution of Geodon cake ([5]; input drug-to-lipid 400 ug/umol, listed as Geodon): 67.4%
% ziprasidone entrapped in liposome from reconstitution of Geodon cake ([5]; input drug-to-lipid 800 ug/umol): 41.38 ± 0.81%
SMILES: O=C1Cc2cc(CCN3CCN(c4nsc5ccccc45)CC3)c(Cl)cc2N1 [ziprasidone]

SMILES: CCc1c2c(nc3ccc(O)cc13)-c1cc3c(c(=O)n1C2)COC(=O)[C@]3(O)CC [SN-38, 7-Ethyl-10-Hydroxy-Camptothecin]
SN-38 transferred into the liposome, % of the added SN-38 [6]: approximately 50%
